Data on six molecules can be found in ChEMBL document CHEMBL3351308, “Allosteric modulation of the G protein-coupled US28 receptor of human cytomegalovirus: are the small-weight inverse agonist of US28 'camouflaged' agonists?” (Bioorg Med Chem Lett, 2014).

Assay [1] addresses T1, G-protein coupled receptor homolog US28 (Human cytomegalovirus (strain AD169) (HHV-5) (Human herpesvirus 5), UniProt P69332).
T1 sequence (P69332 whole entry): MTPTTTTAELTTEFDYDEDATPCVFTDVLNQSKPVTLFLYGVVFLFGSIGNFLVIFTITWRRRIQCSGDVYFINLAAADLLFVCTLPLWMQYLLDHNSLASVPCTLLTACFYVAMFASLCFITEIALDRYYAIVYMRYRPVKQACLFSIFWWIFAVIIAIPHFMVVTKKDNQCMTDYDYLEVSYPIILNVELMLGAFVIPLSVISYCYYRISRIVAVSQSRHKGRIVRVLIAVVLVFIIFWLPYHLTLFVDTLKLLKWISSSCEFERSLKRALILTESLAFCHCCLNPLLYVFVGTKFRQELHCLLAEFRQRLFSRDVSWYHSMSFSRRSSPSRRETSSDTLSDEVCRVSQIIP
Kind of assay: Allosteric modulatory activity at FLAG-tagged wild type human cytomegalovirus US28 receptor expressed in HEK293T cells by PathDetectElk1 assay. Format: cell-based, Human betaherpesvirus 5, HEK-293T.

Assay [2] has as its target T2, G-protein coupled receptor homolog US28 (Human cytomegalovirus (strain AD169) (HHV-5) (Human herpesvirus 5)) (UniProt P69332).
T2 sequence (whole entry): T1 sequence (P69332 whole entry)
Briefly: Allosteric modulatory activity at FLAG-tagged wild type human cytomegalovirus US28 receptor expressed in HEK293T cells by PathDetectElk1 assay relative to basal level. Format: cell-based. More on the design: concentration or dose not given beside the values. The note with it: Human betaherpesvirus 5; HEK-293T.

In assay [3] the target is G protein-coupled receptor (Human betaherpesvirus 5, UniProt Q9IP65). Kind of assay: Allosteric modulatory activity at FLAG-tagged human cytomegalovirus US28 receptor delta300 mutant expressed in HEK293T cells by PathDetectElk1 assay. In kind it is cell-based. To be noted: hek-293t.
In assay [4] the target is T3, G protein-coupled receptor (Human betaherpesvirus 5) (UniProt Q9IP65).
T3 sequence (whole entry): T1 sequence (P69332 whole entry) with T21A, F25L, D170N, R267K, V346A
Kind of assay: Allosteric modulatory activity at FLAG-tagged human cytomegalovirus US28 receptor delta300 mutant expressed in HEK293T cells by PathDetectElk1 assay relative to basal level. In kind it is cell-based. To be noted: HEK-293T.

Assay [5] has as its target T3, G protein-coupled receptor (Human betaherpesvirus 5). Kind of assay: Increase in CX3CL1/Fractalkine binding to FLAG-tagged human cytomegalovirus US28 receptor delta300 mutant expressed in HEK293T cells. Format: cell-based. The note with it: HEK-293T.
The target is the same in assay [6]. Briefly: Allosteric modulatory activity at FLAG-tagged human cytomegalovirus US28 receptor delta300 mutant expressed in HEK293T cells assessed as reduction in CX3CL1/Fractalkine-induced response by PathDetectElk1 assay. Format: cell-based. The note with it: HEK-293T.
Assay [7] has the same target. Kind of assay: Effect on CX3CL1/Fractalkine binding to FLAG-tagged human cytomegalovirus US28 receptor delta300 mutant expressed in HEK293T cells. Format: cell-based. To be noted: HEK-293T.
The target is the same in assay [8]. Briefly: Allosteric modulatory activity at FLAG-tagged human cytomegalovirus US28 receptor delta300 mutant expressed in HEK293T cells at 10 uM in presence of CX3CL1/Fractalkine by PathDetectElk1 assay. Format: cell-based. To be noted: HEK-293T.
The target is the same in assay [9]. Kind of assay: Allosteric modulatory activity at FLAG-tagged human cytomegalovirus US28 receptor delta300 mutant expressed in HEK293T cells assessed as reduction in CCL5/Rantes-induced response by PathDetectElk1 assay. In kind it is cell-based. To be noted: HEK-293T.

Where a chain is given by its changes, count along the chain named. Active and inactive are the calls of the source. The rule behind the calls is not given here.

Sequence of G protein-coupled receptor (Q9IP65 1-354): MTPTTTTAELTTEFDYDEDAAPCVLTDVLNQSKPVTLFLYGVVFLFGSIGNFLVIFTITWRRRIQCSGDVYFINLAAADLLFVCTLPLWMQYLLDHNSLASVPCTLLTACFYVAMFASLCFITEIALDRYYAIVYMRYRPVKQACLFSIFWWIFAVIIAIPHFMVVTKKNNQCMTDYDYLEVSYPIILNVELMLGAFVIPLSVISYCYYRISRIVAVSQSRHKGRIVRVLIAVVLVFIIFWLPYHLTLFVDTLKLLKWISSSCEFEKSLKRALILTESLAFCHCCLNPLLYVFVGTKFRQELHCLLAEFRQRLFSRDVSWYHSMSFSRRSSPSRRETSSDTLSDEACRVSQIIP

Turning to `CC1(CCO)Cc2ccccc2C(=O)N1c1ccccc1` (stereo not given), the EC50 was 1 µM in assay [1] and 3.1 µM in assay [3]. For the same molecule, the Efficacy in assay [2] is -14%; in assay [4], -21%. The pEC50 in assay [3] is on record as 5.51.

As for `CCCCCCCCCC(=O)N(CCN(C)C)CC1(C)Cc2ccccc2C(=O)N1` (stereo not given), the EC50 in assay [1] was 1.5 µM; in assay [3], above 10 µM. Besides, the Efficacy is -20% in assay [2] and above 180% in assay [4]. In assay [3], the pEC50 is reported as below 5.

For `CC1(CO)Cc2ccccc2C(=O)N1c1ccccc1` (stereo not given), the EC50 in [1] amounted to 4.4 µM; in [3], 0.93 µM. The values for the Efficacy in assay [2] and in [4] were 41% and 27%, respectively. This molecule also returned a pEC50 in assay [3] of 6.03. The result in assay [5] was Active.

With `N#CC(CCCN1CCC(O)(c2ccc(Cl)cc2)CC1)(c1ccccc1)c1ccccc1` [BERLEX COMPOUND], the results for the EC50 in assay [1] and in [3] were 4.5 µM and above 10 µM, respectively. Further, the values for the Efficacy in assay [2] and in [4] were -22% and above 180%, respectively. In assay [3], this molecule came in with a pEC50 below 5.

As for `CC1(COC(=O)Cc2ccccc2)Cc2ccccc2CN1C(=O)Cc1ccccc1` (stereo not given), the EC50 in assay [1] worked out at 3.4 µM; in assay [3], 2.5 µM. For the same molecule, the Efficacy was -37% in assay [2] and -29% in assay [4]. In assay [3], this molecule displayed a pEC50 of 5.59. For the same molecule, in [6], the Activity entry is “Dose-dependent effect”. Besides, the result in assay [7] and in [8] was inactive. Besides, the result in assay [9] was Active.

As for `CSc1ccc2c(c1)C(N1CCN(C)CC1)Cc1ccccc1S2` (stereo not given) [METITEPINE], the EC50 in [1] is 0.35 µM; in assay [3] it was 0.33 µM. The Efficacy in assay [2] came out at 10%; in [4], 110%. The molecule also showed a pEC50 in [3] of 6.48.

The EC50 is the concentration that produces a half-maximal response. By pEC50 is commonly meant the EC50 on a negative log10 scale, so that one unit is a factor of ten.
